Measured values taken from patent US12514928B2, “Herboxidiene antibody-drug conjugates and methods of use” (Eisai R&D Management Co., Ltd., priority 2018, dated 2026).
Like-named read-outs stand apart in the source and are kept apart here.

What was measured:
[1] = tested on: SLC25A19 mature transcript; test: In-cell splicing PD assay, HCC1954; type: cell-based; details: Homo sapiens, HCC1954, 6 h
Description: (§1) 4.1.2 In-Cell Splicing PD Assay
(§2) Splicing of the SLC25A19 mature transcript was also examined in HCC1954 and NCI-N87 cells treated with increasing concentrations of exemplary payload compounds.
(§3) HCC1954 or NCI-N87 cells (ATCC) were plated in RPM1+10% FBS media (ATCC) at 1000 cells per well at 20 μL per well. Cells were treated with compounds in a 4-fold dilution dose-response. After 6 hours, cells were PBS washed and lysed with 30 μL of CL buffer (IgePal CA-630, 5M NaCl, 1M Tris HCl 1M pH 7.4 in water) containing 25 μL/mL of RNAsin (Promega) and incubated for 20 min at RT on a rocker. Resulting mixture (1 μL) was used to assess splicing modulation in a Taqman Fast Virus 1-Step MasterMix (Applied Biosystems) reverse transcription PCR reaction with the following Taqman primers according to the manufacturer's recommendations: SLC25A19 (Invitrogen, Hs00222265_m1); RPLPO (Invitrogen, Hs99999902_m1).

[2] = tested on: NCI-N87 gastric cancer cells; test: Payload cell viability dose response (CellTiter-Glo 2.0), NCI-N87 (Example 4); type: cell-based, human; details: for GI50: Homo sapiens
Description: (§4) Cell viability dose response was determined for exemplary payload compounds in HER2-amplified HCC1954 breast cancer cells and NCI-N87 gastric cancer cells.
(§5) HCC1954 (American Type Culture Collection (ATCC)) breast ductal carcinoma or NCI-N87 (ATCC) gastric carcinoma cells were plated at 500 cells/well in flat bottom 384-well tissue culture plates (Corning) in a total volume of 30 μL tissue culture medium supplemented with 10% fetal bovine serum (ThermoFisher Scientific). Cells were treated with a 4-fold serial dilution of compound from 10000 nM to 0.01 nM. Each concentration was tested in triplicate. At the time of treatment, a plate of untreated cells was evaluated using CellTiter-Glo® 2.0 Luminescent Cell Viability Assay according to the manufacturer's recommendations (Promega; #G9241). CellTiter-Glo® 2.0 reagent was added to the medium, incubated, and assayed on an EnVision Multilabel Reader (PerkinElmer). Values represent time zero (T0). The number of viable cells following 72 (T72) or 144 hours (T144) of compound treatment was also determined using the CellTiter-Glo®2.0 Luminescent Cell Viability Assay. Using the luminescence value at time zero (T0), DMSO control growth (C), and test growth in the presence of compound (T72 or T144), the percentage growth was calculated at each of the compound concentrations levels. Percentage growth inhibition was calculated as (e.g.): [(T144−T0)/(C−T0)]×100 for concentrations for which T144>/=T0 or [(T144−T0)/T0]×100 for concentrations for which T144<T0. The dose response curve plots were generated using Prism 8 (Graphpad) and fit using nonlinear regression analysis and the log(inhibitor) versus response-variable slope (four parameters).

[3] = tested on: HCC1954 breast cancer cells; test: Payload cell viability dose response (CellTiter-Glo 2.0), HCC1954 (Example 4); type: cell-based, human; details: for GI50: Homo sapiens
Description: as §4, §5

[4] = tested on: SLC25A19 mature transcript; test: In-cell splicing PD assay, NCI-N87; type: cell-based; details: Homo sapiens, NCI-N87, 6 h
Description: as §1, §2, §3

[5] = tested on: Ad2.1; test: In vitro splicing (IVS) assay, qPCR-IVS-ATS, Ad2.1 substrate, HELA.2; type: biochemical; details: payload, read-out: qPCR-IVS-ATS GMean IC50 (nM) Ad2.1 HELA.2
[6] = tested on: Ad2.2 pre-mRNA; test: In vitro splicing (IVS) assay with HeLa nuclear extract, RT-qPCR of spliced product; type: biochemical; details: payload, HELA.2, read-out: qPCR-IVS-ATS GMean IC50 (nM) Ad2.2 HELA.2
Description: 2.1 In Vitro Splicing (IVS)
To evaluate payload activity in a cell-free system, an in vitro splicing assay was performed. The payloads were incubated with nuclear extracts and pre-mRNA substrate minigenes.
HeLa nuclear extract preparation: HeLa S3 cell pellets were resuspended in hypotonic buffer (10 mM HEPES pH 7.9, 1.5 mM MgCl2, 10 mM KCl, 0.2 mM PMSF, 0.5 mM DTT) and the suspension was brought up to a total of 5 packed cell volume (PCV). After centrifugation, the supernatant was discarded, and the cells were brought up to 3 PCV with hypotonic buffer and incubated on ice for 10 min. Cells were lysed using a dounce homogenizer and then centrifuged. The supernatant was discarded, and the pellet was resuspended with […] packed nuclear volume (PNV) of low salt buffer (20 mM HEPES pH 7.9, 1.5 mM MgCl2, 20 mM KCl, 0.2 mM EDTA, 25% glycerol, 0.2 mM PMSF, 0.5 mM DTT), followed by 1/2 PNV of high salt buffer (same as low salt buffer except 1.4 M KCl). The nuclei were gently mixed for 30 min before centrifuging. The supernatant (nuclear extract) was then dialyzed into storage buffer (20 mM HEPES pH 7.9, 100 mM KCl, 0.2 mM EDTA, 20% glycerol, 0.2 mM PMSF, 0.5 mM DTT). Protein concentration was determined using NanoDrop 8000 UV-Vis spectrophotometer (ThermoFisher Scientific).
IVS: All Ad2-derived sequences (Pellizzoni et al. (1998) Cell 95(5):615-24) were cloned into pcDNA3.1(+) vector (Promega) using 5′ EcoRI and 3′ Xbal restriction sites. The plasmids were linearized using Xbal and used as DNA templates in in vitro transcription reactions. The FtzΔi intron-less plasmid (Luo and Reed (1999) 96(26):14937-42) was linearized using EcoRI. All RNAs were in vitro transcribed and then purified using MEGAScript T7 (Invitrogen) and MegaClear (Invitrogen) kits, respectively. For splicing reactions using Ad2 variant pre-mRNAs, […] were prepared using 8 μg nuclear extracts prepared from HeLa S3, 2 ng pre-mRNA, 0.2 ng FTZΔi, and varying concentrations of compounds or DMSO. After a 15 min pre-incubation at 30° C., 1 μL splicing activation buffer (0.5 mM ATP, 20 mM creatine phosphate, 1.6 mM MgCl2) was added, and the reactions were incubated for 90 min at 30° C. The reactions were then quenched with 13 μL DMSO, and 25 nL was used for RT-qPCR. RT-qPCR reactions were prepared using TaqMan RNA-to-CT 1-step kit (Life Technologies), RNA from splicing reactions, Ad2 (forward: […]; reverse: […]; probe: CTGTTGGGCTCGCGGTTG) and Ftz (forward: […]; reverse: […]; probe: […]) mRNA primer-probe sets. Prism 7 (Graphpad) was used for non-linear regression curve fitting of the formed spliced product and normalized to the control (DMSO) sample.

[7] = tested on: THP1.1; test: Herboxidiene splicing modulator cell potency, CTGlo-ATS, THP1.1, 72 h; type: cell-based; details: payload; for GI50: THP1.1, read-out: CTGIo-ATS GMean GI50 (nM) 72 h THP1.1
[8] = tested on: NCIH1650.1; test: Herboxidiene splicing modulator cell potency, CTGlo-ATS, NCIH1650.1, 72 h; type: cell-based; details: payload; for GI50: NCIH1650.1, read-out: CTGIo-ATS GMean GI50 (nM) 72 h NCIH1650.1
[9] = NCI-N87, 72 h, read-out: CTG 72 h GI50
[10] = NCI-N87, 144 h, read-out: CTG 144 h GI50
[11] = HCC1954, 72 h, read-out: CTG 72 h GI50
[12] = HCC1954, 144 h, read-out: CTG 144 h GI50

Row | SMILES | IC50 [1] [nM] | GI50 [2, 9] [nM] | GI50 [2, 10] [nM] | CTG 72 h LD50 ([2]; NCI-N87, 72 h) [µM] | CTG 72 h Rmin ([2]; NCI-N87, 72 h) [%] | CTG 144 h LD50 ([2]; NCI-N87, 144 h) [nM] | CTG 144 h Rmin ([2]; NCI-N87, 144 h) [%] | CTG 72 h LD50 ([3]; HCC1954, 72 h) [µM] | CTG 72 h Rmin ([3]; HCC1954, 72 h) [%] | CTG 144 h LD50 ([3]; HCC1954, 144 h) [nM] | CTG 144 h Rm in ([3]; HCC1954, 144 h) [%] | GI50 [3, 11] [nM] | GI50 [3, 12] [nM] | IC50 [4] [nM] | IC50 [5] [nM] | IC50 [6] [nM] | CTGIo-ATS GMean LD50 (nM) 72 h THP1.1 [7] [nM] | CTGIo-ATS Mean MinResponse % 72 h THP1.1 [7] [%] | GI50 [7] [nM] | CTGIo-ATS GMean LD50 (nM) 72 h NCIH1650.1 [8] [nM] | other results
1 | COC(=O)[C@@H](CCCCNC(=O)N1CCN(C)CC1)NC(=O)C[C@H]1CC[C@H](C)[C@@H](/C(C)=C/C=C/[C@@H](C)C[C@@]2(C)O[C@@H]2[C@H](C)[C@@H](OC)[C@@H](C)O)O1 [Compound H21] | 157 | 35.5 | 40.9 | > 10 | −7.791 | 654.736 | −86.347 | > 10 | −54.164 | 127.893 | −97.761 | 81.4 | 50 | 87.5 |  |  |  |  |  |  | 
2 | CNC1CCN(C(=O)OCCOCCC(=O)NC[C@H]2CC[C@H](C)[C@@H](/C(C)=C/C=C/[C@@H](C)C[C@@]3(C)O[C@@H]3[C@H](C)[C@@H](OC)[C@@H](C)O)O2)C1 (stereo partly drawn) [Compound H10, 2-(3-((((2R,5S,6S)-6-((S,2E,4E)-7-((2R,3R)-3-((2R,3R,4R)-4-hydroxy-3-methoxypentan-2-yl)-2-methyloxiran-2-yl)-6-methylhepta-2,4-dien-2-yl)-5-methyltetrahydro-2H-pyran-2-yl)methyl)amino)-3-oxopropoxy)ethyl 3-(methylamino)pyrrolidine-1-carboxylate] |  |  |  |  |  |  |  |  |  |  |  |  |  |  | 21.7 | 16.5 | 21.021 | −98.789 | 2.06 | >10000 | CTGIo-ATS Mean MinResponse % 72 h NCIH1650.1 [8]: 9.194%; GI50 [8]: 3.04 nM
3 | COC(=O)[C@@H](CCCCNC(=O)C[C@H]1CC[C@H](C)[C@@H](/C(C)=C/C=C/[C@@H](C)C[C@@]2(C)O[C@@H]2[C@H](C)[C@@H](OC)[C@@H](C)O)O1)NC(=O)N1CCN(C)CC1 [Compound H20] | 51.4 | 29.4 | 21 | > 10 | −62.676 | 532.734 | −94.539 | > 10 | −44.802 | 98.861 | −94.301 | 40.4 | 36.4 | 56.2 |  |  |  |  |  |  | 
4 | CNC1CCN(C(=O)O[C@@H]2C[C@H](CC(=O)O)O[C@H](/C(C)=C/C=C/[C@@H](C)C[C@@]3(C)O[C@@H]3[C@H](C)[C@@H](OC)[C@@H](C)O)[C@H]2C)C1 (stereo partly drawn) [Compound H3, 2-((2R,4R,5S,6S)-6-((S,2E,4E)-7-((2R,3R)-3-((2R,3R,4R)-4-hydroxy-3-methoxypentan-2-yl)-2-methyloxiran-2-yl)-6-methylhepta-2,4-dien-2-yl)-5-methyl-4-((3-(methylamino)pyrrolidine-1-carbonyl)oxy)tetrahydro-2H-pyran-2-yl)acetic acid] |  |  |  |  |  |  |  |  |  |  |  |  |  |  | 562 | 35.2 | 478.332 | −92.943 | 54.6 | >10000 | CTGIo-ATS Mean MinResponse % 72 h NCIH1650.1 [8]: 19.182%; GI50 [8]: 115 nM
5 | CO[C@H]([C@@H](C)[C@H]1O[C@]1(C)C[C@H](C)/C=C/C=C(\C)[C@H]1O[C@@H](CC(=O)N[C@H](CCCOC(=O)N2CCN(C)CC2)C(=O)O)CC[C@@H]1C)[C@@H](C)O [Compound H18] | 1680 | 300 | 313 | > 10 | −12.297 | 3937.618 | −60.543 | > 10 | −20.785 | 1606.048 | −88.195 | 624 | 436 | 464 |  |  |  |  |  |  | 
6 | CNC1CCN(C(=O)OCCCCCC(=O)NC[C@H]2CC[C@H](C)[C@@H](/C(C)=C/C=C/[C@@H](C)C[C@@]3(C)O[C@@H]3[C@H](C)[C@@H](OC)[C@@H](C)O)O2)C1 (stereo partly drawn) [Compound H7, 6-((((2R,5S,6S)-6-((S,2E,4E)-7-((2R,3R)-3-((2R,3R,4R)-4-hydroxy-3-methoxypentan-2-yl)-2-methyloxiran-2-yl)-6-methylhepta-2,4-dien-2-yl)-5-methyltetrahydro-2H-pyran-2-yl)methyl)amino)-6-oxohexyl 3-(methylamino)pyrrolidine-1-carboxylate] |  |  |  |  |  |  |  |  |  |  |  |  |  |  | 14.5 | 12.1 | 6.756 | −99.328 | 0.65 | >10000 | CTGIo-ATS Mean MinResponse % 72 h NCIH1650.1 [8]: 5.754%; GI50 [8]: 0.772 nM
7 | CO[C@H]([C@@H](C)[C@H]1O[C@]1(C)C[C@H](C)/C=C/C=C(\C)[C@H]1O[C@@H](CC(=O)N[C@@H](COC(=O)N2CCN(C)CC2)C(=O)O)CC[C@@H]1C)[C@@H](C)O [Compound H13] | 320 | 53.9 | 115 | > 10 | −15.164 | 2784.969 | −80.613 | > 10 | −54.164 | 690.614 | −97.151 | 190 | 210 | 108 |  |  |  |  |  |  | 
